Reference: US9877999B2, “Methods for treating metastatic stage prostate cancer” (Ferring International SA, priority 2008, dated 2018)
Square brackets hold non-standard residues; d marks the D form. Peptide text beside a SMILES is read from it. * marks the point of attachment. dPhe(4-NHCONH2) = NC(=O)Nc1ccc(C[C@@H](N)C(=O)O)cc1; Dihydroorotyl(S) = O=C1C[C@@H](C(=O)*)NC(=O)N1; dPhe(4-Cl) = N[C@H](Cc1ccc(Cl)cc1)C(=O)O; Phe(4-NH2) = Nc1ccc(C[C@H](N)C(=O)O)cc1; d2Nal = N[C@H](Cc1ccc2ccccc2c1)C(=O)O; Lys(iPr) = CC(C)NCCCC[C@H](N)C(=O)O; d3Pal = N[C@H](Cc1cccnc1)C(=O)O

How the values were obtained:
[1] = test system: follicle stimulating hormone (FSH); assay: Serum FSH levels over time (clinical study CS21); format: in vivo, human; details: by day 7; degarelix
Method: The study also investigated whether degarelix is safe and effective with respect to achieving and maintaining testosterone suppression to castrate levels, evaluated as the proportion of patients with testosterone suppression ≦0.5 ng/mL during 12 months of treatment. […] The study also evaluated the pharmacokinetics of the degarelix dosing regimens investigated. Finally, the study examined the effects of using the degarelix treatment on patients suffering from different stages of cancer.
Patients in two treatment groups received a degarelix starting dose of 240 mg at a concentration of 40 mg/mL (240@40) on day 0 administered as two equivalent subcutaneous (s.c.) injections of 120 mg each. Thereafter, patients received 12 additional single s.c. degarelix doses of either 80 mg at a concentration of 20 mg/mL (80@20: degarelix 240/80 mg group) or 160 mg at a concentration of 40 mg/mL (160@40: degarelix 240/160 mg group) administered s.c. every 28 days.
The secondary efficacy endpoints were: the proportion of patients with testosterone surge during the first 2 weeks of treatment; the proportion of patients with testosterone level ≦0.5 ng/mL at day 3; the percentage change in PSA from baseline to day 28; the probability of testosterone ≦0.5 ng/mL from day 56 through day 364; the levels of serum testosterone, LH, FSH and PSA over time through the study; the time to PSA failure, defined as two consecutive increases of 50%, and at least 5 ng/mL as compared to nadir; degarelix concentration over the first month and trough levels at day 308 and 336; the frequency and size of testosterone increases at day 255 and/or 259 compared to the testosterone level at day 252; the quality of life on days 0, 28, 84, 168 and end of study visit; the frequency and intensity of hot flushes experienced (scored daily from study start until end of study visit). In addition, two further secondary endpoints were added: the probability of sufficient testosterone response from day 28 through day 364 (a patient was considered to have insufficient testosterone response if they had one testosterone value >1.0 ng/mL or two consecutive testosterone values >0.5 ng/mL at day 28 onwards); and the percentage change in PSA from baseline to day 14.

in vitro = details: plasma
[2] = human, in vivo

CC(=O)N[C@H](Cc1ccc2ccccc2c1)C(=O)N[C@H](Cc1ccc(Cl)cc1)C(=O)N[C@H](Cc1cccnc1)C(=O)N[C@@H](CO)C(=O)N[C@@H](Cc1ccc(NC(=O)[C@@H]2CC(=O)NC(=O)N2)cc1)C(=O)N[C@H](Cc1ccc(NC(N)=O)cc1)C(=O)N[C@@H](CC(C)C)C(=O)N[C@@H](CCCCNC(C)C)C(=O)N1CCC[C@H]1C(=O)N[C@H](C)C(N)=O [degarelix, D-Alaninamide, N-acetyl-3-(2-naphthalenyl)-D-alanyl-4-chloro-D-phenylalanyl-3-(3-pyridinyl)-D-alanyl-L-seryl-4-[[[(4S)-hexahydro-2,6-dioxo-4-pyrimidinyl]carbonyl]amino]-L phenylalanyl-4-[(aminocarbonyl)amino]-D-phenylalanyl-L leucyl-N6-(1-methylethyl)-L-lysyl-L-prolyl] (Ac-[d2Nal][dPhe(4-Cl)][d3Pal]S[Phe(4-NH2)](Dihydroorotyl(S))[dPhe(4-NHCONH2)]L[Lys(iPr)]P[dA]-NH2)
decrease of median FSH from baseline [1]: > 80%
median FSH level [1]: ≤ 1.5 IU/L
fraction unbound (in vitro): ~0.1
tolerability [2]: generally well tolerated
